The values below come from ChEMBL document CHEMBL6114990, “Design, synthesis, and biological evaluation of quinazolinone-dihydropyrimidinone as a potential anti-diabetic agent via GLUT4 translocation stimulation” (Eur J Med Chem, 2025).

The target in data set [1] is T1, Solute carrier family 2, facilitated glucose transporter member 4 (Rattus norvegicus) (UniProt P19357).
T1 sequence (whole entry): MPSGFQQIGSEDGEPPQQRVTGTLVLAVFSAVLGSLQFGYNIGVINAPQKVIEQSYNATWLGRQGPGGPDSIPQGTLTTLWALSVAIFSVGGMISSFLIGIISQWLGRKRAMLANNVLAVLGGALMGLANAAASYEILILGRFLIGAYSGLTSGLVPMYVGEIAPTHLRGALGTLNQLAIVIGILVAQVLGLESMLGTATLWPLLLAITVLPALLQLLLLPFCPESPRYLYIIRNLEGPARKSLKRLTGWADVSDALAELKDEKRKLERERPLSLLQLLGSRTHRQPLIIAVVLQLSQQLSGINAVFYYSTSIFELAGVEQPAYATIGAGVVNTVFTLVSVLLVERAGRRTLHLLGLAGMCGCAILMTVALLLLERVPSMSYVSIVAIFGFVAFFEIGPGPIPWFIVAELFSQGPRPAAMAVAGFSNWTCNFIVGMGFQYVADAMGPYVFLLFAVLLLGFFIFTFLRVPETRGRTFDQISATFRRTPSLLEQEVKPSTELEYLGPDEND
The experiment in a line: Induction of GLUT4 translocation in rat L6-GLUT4myc skeletal muscle cells assessed as translocation to cell surface by measuring fold stimulation at 10 uM measured after 16 hrs by antibody-coupled colorimetric assay. In kind it is cell-based. The note with it: filed as activator.

Data set [2] has as its target T1, Solute carrier family 2, facilitated glucose transporter member 4 (Rattus norvegicus). In words: Induction of GLUT4 translocation in rat L6-GLUT4myc skeletal muscle cells assessed as translocation to cell surface by measuring fold stimulation at 500 uM measured after 16 hrs by antibody-coupled colorimetric assay. In kind it is cell-based. The note with it: filed as activator.

Data set [3] has as its system Rattus norvegicus. The experiment in a line: Anti-hyperglycemic activity against STZ-induced diabetic Sprague-Dawley rat model assessed as reduction in blood glucose level at 300 mg/kg, po measured after 5 hrs relative to control. In kind it is functional. The arrangement: scale not given: the % may be the effect or the level left.
Data set [4] has as its target T1, Solute carrier family 2, facilitated glucose transporter member 4 (Rattus norvegicus). The experiment in a line: Induction of GLUT4 translocation in rat L6-GLUT4myc skeletal muscle cells assessed as translocation to cell surface measured after 16 hrs by antibody-coupled colorimetric assay. The note with it: filed as activator, dose 5-25 µM. Format: cell-based.
Data set [5] can be described thus: Thermodynamic solubility of compound in distilled water measured for 24 hrs by HPLC analysis. Format: physicochemical. The note with it: read-out: Therm_solubility.
In data set [6] the test system is L6-GLUT4myc. The experiment in a line: Induction of AKT phosphorylation at Ser 473 residue in rat L6-GLUT4myc skeletal muscle cells at 10 uM measured after 16 hrs by Western blot analysis. In kind it is cell-based. (A western blot detects proteins with antibodies after separation by electrophoresis.)
The nature of data set [7]: Thermodynamic solubility of compound in HCL buffer at pH 1.2 measured for 24 hrs by HPLC analysis. In kind it is physicochemical. To be noted: read-out: Therm_solubility.
In data set [8] the test system is Rattus norvegicus. The experiment in a line: Anti-hyperglycemic activity against STZ-induced diabetic Sprague-Dawley rat model assessed as reduction in blood glucose level at 100 mg/kg, po measured after 5 hrs relative to control. In kind it is functional. Also noted: scale not given: the % may be the effect or the level left.
Data set [9] relates to L6-GLUT4myc. In words: Effect on AKT2 expression in rat L6-GLUT4myc cells at 10 uM incubated for 16 hrs by qRT-PCR analysis. In kind it is functional, cell-based.
The nature of data set [10]: Metabolic stability in rat liver microsome assessed as intrinsic clearance measured upto 60 mins by HPLC analysis. Format: ADME. The note with it: microsomes, 1 h. On the technique in general: Liver microsomes are a subcellular fraction often used to study metabolism.
Data set [11] is described as follows: Thermodynamic solubility of compound in tris buffer at pH 7.4 measured for 24 hrs by HPLC analysis. In kind it is physicochemical. To be noted: read-out: Therm_solubility.
Data set [12] deals with 5'-AMP-activated protein kinase catalytic subunit alpha-1 (Rattus norvegicus) (UniProt P54645). The experiment in a line: Activation of AMPKalpha in rat L6-GLUT4myc cells assessed as induction of AMPKalpha phosphorylation at Thr172 residue at 10 uM measured for 16 hrs by Western blot analysis. In kind it is cell-based. To be noted: filed as activator.
The target of data set [13] is T1, Solute carrier family 2, facilitated glucose transporter member 4 (Rattus norvegicus). In words: Induction of insulin-induced GLUT4 translocation in rat L6-GLUT4myc skeletal muscle cells assessed as translocation to cell surface at 10 uM measured after 16 hrs incubation (final 3 hrs under serum starved medium) followed by stimulated with 100 nM insulin for 20 mins in presence of wortmannin PI3 Kinase inhibitor by antibody-coupled colorimetric assay. The note with it: time 980.0 min. In kind it is cell-based.

The test system of data set [14] is L6-GLUT4myc. The experiment in a line: Effect on IRS1 expression in rat L6-GLUT4myc cells at 10 uM incubated for 16 hrs by qRT-PCR analysis. Format: functional, cell-based. On the technique in general: Quantitative PCR measures a nucleic acid by following its amplification.
Data set [15] has as its target T1, Solute carrier family 2, facilitated glucose transporter member 4 (Rattus norvegicus). The experiment in a line: Induction of insulin-induced GLUT4 translocation in rat L6-GLUT4myc skeletal muscle cells assessed as translocation to cell surface at 10 uM measured after 16 hrs incubation (final 3 hrs under serum starved medium) followed by stimulated with 100 nM insulin for 20 mins by antibody-coupled colorimetric assay. The note with it: filed as activator, time 980.0 min. Format: cell-based.

Data set [16] is described as follows: Stability of compound in simulated gastric fluid at pH 1.2 assessed as parent compound remaining measured after 120 mins by LC-MS/MS analysis. Format: physicochemical. To be noted: read-out: Stability.
Data set [17] relates to L6-GLUT4myc. The experiment in a line: Effect on GLUT4 expression in rat L6-GLUT4myc cells at 10 uM incubated for 16 hrs by qRT-PCR analysis. Format: functional, cell-based.
Data set [18] can be described thus: Metabolic stability in rat liver microsome assessed as half life measured upto 60 mins by HPLC analysis. Format: ADME. The note with it: microsomes, 1 h.
Data set [19] in a line: Stability of compound in simulated physiological fluid at pH 7.4 assessed as parent compound remaining measured after 120 mins by LC-MS/MS analysis. The note with it: read-out: Stability. In kind it is physicochemical.
Data set [20] is described as follows: Stability of compound in simulated intestinal fluid at pH 6.8 assessed as parent compound remaining measured after 120 mins by LC-MS/MS analysis. In kind it is physicochemical. The note with it: read-out: Stability.

In brackets after ≈: the same amount, converted by molar mass. Activity calls are given as the source filed them. The calls are words filed in the database; no cut-off is given here.

5'-AMP-activated protein kinase catalytic subunit alpha-1 (Rattus norvegicus), sequence (P54645 whole entry): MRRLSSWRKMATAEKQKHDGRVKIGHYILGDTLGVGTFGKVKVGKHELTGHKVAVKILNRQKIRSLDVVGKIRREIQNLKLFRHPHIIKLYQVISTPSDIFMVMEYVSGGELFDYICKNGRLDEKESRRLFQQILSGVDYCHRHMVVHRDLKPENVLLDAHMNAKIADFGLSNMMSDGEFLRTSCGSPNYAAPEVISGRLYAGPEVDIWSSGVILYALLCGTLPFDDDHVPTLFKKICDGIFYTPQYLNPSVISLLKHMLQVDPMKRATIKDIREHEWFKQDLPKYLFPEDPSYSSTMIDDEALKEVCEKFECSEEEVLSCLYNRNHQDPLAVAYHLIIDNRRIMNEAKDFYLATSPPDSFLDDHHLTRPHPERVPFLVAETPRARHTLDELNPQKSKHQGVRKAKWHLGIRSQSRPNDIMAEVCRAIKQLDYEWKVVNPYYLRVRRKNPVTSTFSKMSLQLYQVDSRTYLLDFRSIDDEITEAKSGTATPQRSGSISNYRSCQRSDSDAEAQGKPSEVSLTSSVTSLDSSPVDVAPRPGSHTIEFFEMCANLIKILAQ

Consider `CC1=C(C(=O)Nc2cccc(-c3nc4ccccc4c(=O)n3C)c2)C(c2ccc([N+](=O)[O-])cc2)NC(=O)N1` (stereo not given), for which the fold change (FC) in [1] stood at 1.

Regarding `CN(C)C(=N)NC(=N)N` [METFORMIN], the fold change (FC) in data set [2] amounted to 1.65. In addition, the Activity in the data set on Rattus norvegicus [3] was determined as 64.7%.

As for `CC1=C(C(=O)Nc2ccc(-c3nc4ccccc4c(=O)n3C)cc2)C(c2cccc(Cl)c2)NC(=O)N1` (stereo not given), the fold change (FC) in data set [1] came to 1.92. In data set [4], the Activity result is “Dose-dependent-effect”.

As for `CCn1c(-c2ccc(NC(=O)C3=C(C)NC(=O)NC3c3scnc3C)cc2)nc2ccccc2c1=O` (stereo not given), in data set [1], the fold change (FC) came out at 1.31.

As to `CC1=C(C(=O)Nc2ccc(-c3nc4ccccc4c(=O)n3C)cc2)C(c2cccs2)NC(=O)N1` (stereo not given), the fold change (FC) in [1] stood at 1.27.

For the compound `COc1ccc(C2NC(=O)NC(C)=C2C(=O)Nc2ccc(-c3nc4ccccc4c(=O)n3C)cc2)cc1` (stereo not given), the fold change (FC) in data set [1] was found to be 1.28.

On to `CC1=C(C(=O)Nc2cccc(-c3nc4ccccc4c(=O)n3C)c2)C(c2ccc(Cl)cc2)NC(=O)N1` (stereo not given), for which the fold change (FC) in data set [1] is 1.17.

As to `CC1=C(C(=O)Nc2ccc(-c3nc4ccccc4c(=O)n3C)cc2)C(c2scnc2C)NC(=O)N1` (stereo not given), the fold change (FC) in data set [1] came to 1.05.

As for `CC1=C(C(=O)Nc2ccc(-c3nc4ccccc4c(=O)n3C)cc2)C(c2ccco2)NC(=O)N1` (stereo not given), the fold change (FC) in data set [1] was 1.11.

`CCn1c(-c2ccc(NC(=O)C3=C(C)NC(=O)NC3c3ccccc3)cc2)nc2ccccc2c1=O` (stereo not given): in data set [1], the fold change (FC) stood at 1.32.

Regarding `CC1=C(C(=O)Nc2ccc(-c3nc4ccccc4c(=O)n3C)cc2)C(c2ccc(N(C)C)cc2)NC(=O)N1` (stereo not given), in [1], the fold change (FC) was determined as 1.08.

Consider `CC1=C(C(=O)Nc2cccc(-c3nc4ccccc4c(=O)n3C)c2)C(c2ccco2)NC(=O)N1` (stereo not given), for which, in [1], the fold change (FC) is 1.1.

Take `CCn1c(-c2ccc(NC(=O)C3=C(C)NC(=O)NC3c3ccsc3)cc2)nc2ccccc2c1=O` (stereo not given): the fold change (FC) in [1] came out at 1.29.

In the case of `CC1=C(C(=O)Nc2cccc(-c3nc4ccccc4c(=O)n3C)c2)C(c2ccc(Cl)cc2Cl)NC(=O)N1` (stereo not given), the fold change (FC) in data set [1] came to 1.14.

With `CCn1c(-c2ccc(NC(=O)C3=C(C)NC(=O)NC3c3ccc(Cl)cc3)cc2)nc2ccccc2c1=O` (stereo not given), the fold change (FC) in data set [1] was determined as 1.7.

Regarding `CC1=C(C(=O)Nc2ccc(-c3nc4ccccc4c(=O)n3C)cc2)C(c2ccc(F)cc2)NC(=O)N1` (stereo not given), the fold change (FC) in data set [1] was found to be 1.27.

On to `CCn1c(-c2ccc(NC(=O)C3=C(C)NC(=O)NC3c3ccco3)cc2)nc2ccccc2c1=O` (stereo not given), for which the fold change (FC) in data set [1] was 1.32.

In the case of `COc1ccc(C2NC(=O)NC(C)=C2C(=O)Nc2cccc(-c3nc4ccccc4c(=O)n3C)c2)cc1OC` (stereo not given), the fold change (FC) in data set [1] stood at 1.02.

As for `CC1=C(C(=O)Nc2ccc(-c3nc4ccccc4c(=O)n3C)cc2)C(c2ccc([N+](=O)[O-])cc2)NC(=O)N1` (stereo not given), in [1], the fold change (FC) amounted to 1.21.

Turning to `CC1=C(C(=O)Nc2ccc(-c3nc4ccccc4c(=O)n3C)cc2)C(c2ccc(Cl)cc2Cl)NC(=O)N1` (stereo not given), in [1], the fold change (FC) was determined as 2.52. The Activity entry is “Dose-dependent-effect” in data set [4]; “No effect” in the data set with L6-GLUT4myc [6]; about 39.5% in the data set on Rattus norvegicus [8]; “No effect” in the data set on L6-GLUT4myc [9]; “No effect” in the data set on L6-GLUT4myc [14]; “No effect” in the data set on L6-GLUT4myc [17]. Besides, the solubility thermodynamic at 24 h in [5] is 0.36 µg/mL (≈ 0.674 µM); in data set [7], 23.8 µg/mL (≈ 44.6 µM); in data set [11], 0.25 µg/mL (≈ 0.468 µM). The CLH in [10] was found to be 1.336 µL/min/mg. Further, the result in data set [12] and in data set [15] was Active. In addition, the outcome in data set [13] was inactive. For the same compound, the remaining at 2 h in data set [16], in [19] and in data set [20] was at least 60% in each case. Moreover, in [18], the t1/2 worked out at 3.16 min.

For the compound `CC1=C(C(=O)Nc2cccc(-c3nc4ccccc4c(=O)n3C)c2)C(c2cccs2)NC(=O)N1` (stereo not given), in data set [1], the fold change (FC) was found to be 1.16.

On to `CC1=C(C(=O)Nc2ccc(-c3nc4ccccc4c(=O)n3C)cc2)C(CC(C)C)NC(=O)N1` (stereo not given), for which, in data set [1], the fold change (FC) turned out to be 1.14.

On to `CC1=C(C(=O)Nc2ccc(-c3nc4ccccc4c(=O)n3C)cc2)C(c2ccc(Cl)c(Cl)c2)NC(=O)N1` (stereo not given), for which the fold change (FC) in data set [1] was 1.63.

In the case of `CC1=C(C(=O)Nc2ccc(-c3nc4ccccc4c(=O)n3C)cc2)C(c2ccccc2Cl)NC(=O)N1` (stereo not given), the fold change (FC) in [1] was determined as 1.51.

`CC1=C(C(=O)Nc2ccc(-c3nc4ccccc4c(=O)n3C)cc2)C(c2ccc(C#N)cc2)NC(=O)N1` (stereo not given): the fold change (FC) in [1] came out at 1.1.

Turning to `CC(=O)CC(=O)Nc1ccc(-c2nc3ccccc3c(=O)n2C)cc1`, the fold change (FC) in [1] came out at 1.24.

Turning to `CC1=C(C(=O)Nc2cccc(-c3nc4ccccc4c(=O)n3C)c2)C(c2ccc(F)cc2)NC(=O)N1` (stereo not given), in data set [1], the fold change (FC) turned out to be 1.13.

Turning to `COc1ccc(C2NC(=O)NC(C)=C2C(=O)Nc2ccc(-c3nc4ccccc4c(=O)n3C)cc2)cc1OC` (stereo not given), the fold change (FC) in data set [1] was found to be 1.01.

As for `CC1=C(C(=O)Nc2ccc(-c3nc4ccccc4c(=O)n3C)cc2)C(c2ccc(Cl)cc2)NC(=O)N1` (stereo not given), the fold change (FC) in [1] is 1.7.

In the case of `CC1=C(C(=O)Nc2ccc(-c3nc4cccc(Cl)c4c(=O)n3C)cc2)C(c2ccc(Cl)cc2Cl)NC(=O)N1` (stereo not given), in [1], the fold change (FC) was 1.15.

Take `CC1=C(C(=O)Nc2ccc(-c3nc4ccccc4c(=O)n3C)cc2)C(c2ccc(C(F)(F)F)cc2)NC(=O)N1` (stereo not given): the fold change (FC) in data set [1] turned out to be 1.54.
